Where two headings read alike, the source gives them in different places. Strand notation (5' to 3'): a small letter for the sugar, then the base; units joined by * are phosphorothioate-linked, units joined directly phosphodiester-linked; [ ] holds rarer units or linkages, { } end groups; capitals alone tell only the bases. [Rp] = phosphorothioate linkage, Rp; [Sp] = phosphorothioate linkage, Sp; e = 2'-O-(2-methoxyethyl) (MOE); [5mC] = 5-methylcytosine; d = 2'-deoxy (DNA)
Columns and labels:
[1] = tested on: Apolipoprotein B (Apo B) (NM_000384); assay: Apo B gene expression in Hep3B cells after Lipofectamine 2000 transfection, real-time PCR SYBR green (Example 50); assay type: cell-based, Homo Sapiens; settings: for activity compared to Mipomersen (120) / potency compared to the corresponding stereorandom oligonucleotide mixture (Oligonucleotide 118): from Table E-19 IC50, Hep3B
Method: After checking OD all oligonucleotide candidate molecules were diluted to a starting concentration of 20 μM. Multidose forward transfection experiment was setup in 96-well plates using Hep3B cells (ATCC®, Cat. HB-8064™) using Lipofectamine 2000 (Life Technologies, Cat. 11668-019) transfection reagent.
2×10^4 Hep3B cells per well were seeded and incubated for 24 hours at 37° C. in a CO2 incubator in 100 μl of antibiotic free MEM medium (Life Technologies, Cat. 11095098) containing 10% FBS and 1% Glutamax I (Life Technologies, Cat. 35050061). Twelve dilutions were setup in nuclease free water (Table E-16).
For each well, 0.5 μL of Lipofectamine 2000 were mixed with 9.5 μL of Opti MEM I reduced serum medium (Life Technologies, Cat. 31985062) and incubated for 5 minutes. Following incubation, 10 μL of each of the candidates at the reported concentrations was mixed with the diluted Lipofectamine 2000 by gentle pipetting. The mixture was then incubated for 20 minutes at room temperature to allow for complex formation. During this time the cell growth medium was replaced with 80 μL of fresh antibiotic free MEM as previously described. 20 μL of lipid-oligo complex was gently mixed into each well bringing the total volume to 100 μL. The cells were then incubated for 24 hours at 37° C. in a CO2 incubator.
After 24 hour incubation the cell growth medium was removed and RNA was extracted using a Dynabeads mRNA Direct kit (Life Technologies, Cat. 61012) per the instructions provided in the kit manual without modifications. This magnetic Oligo (dT)^25 bead system allows for cost-effective and robust high-throughput poly (A) RNA extraction circumventing DNAse treatment. RNA was eluted in nuclease-free water and stored at −80° C.
10 μL of RNA was used in a 20 μL cDNA synthesis reaction using a High Capacity cDNA Reverse Transcription Kit (Life Technologies, Cat. 4374967) using the kit protocol with RNAse Inhibitor. The reverse transcription was performed in a 96-well format on a C1000 Touch thermal cycler (Biorad, Cat. 185-1196EDU).
Gene expression was measured by quantitative PCR using a LightCycler® 480 SYBR Green I Master (Roche, Cat. 04707516001) on LightCycler 480 Real-Time PCR instrument. Primers for the Homo Sapiens sequences of the target Apolipoprotein B (Apo B) (NM_000384) and endogenous control Glyceralydhyde-3-phosphate dehydrogenase (GAPDH) (NM_002046) were designed and ordered from IDT (Table E-17).
Measurement of the target and endogenous control was performed in separate wells using material from the same cDNA template. SYBR green assay PCR conditions were setup as described in the SYBR Green I Master protocol (Table E-18).
The data is a result of 3 biological replicates. All samples were compared to Naïve untransfected control. The following results were observed when evaluating gene expression by real-time PCR using SYBR green (Table E-19, FIG. 5).

complementary RNA = assay: Thermal denaturation experiment (Tm) of DNA strand with complementary RNA (Example 49); assay type: binding; settings: duplex with complementary RNA, equimolar 0.5 μM in 1×PBS; first derivative of 254 nm absorbance curve
Method: Each DNA strand was mixed with complementary RNA in equimolar concentration of 0.5 μM in 1×PBS. Total 2.5 mL solution was prepared for each duplex and the mixture was heated at 90° C. for 2 min and was allowed to cool down over the course of several hours. The mixtures were then stored at 4° C. for 2 hrs. Absorbance at 254 nm was recorded at an interval of 0.5 min starting the temperature gradient from 15° C. to 90° C. with rise of 0.5° C./minute, using a Perkin Elmer UV-spectrophotometer equipped with a Peltier unit. The 254 nm absorbance was plotted against the temperature and the Tm values were calculated from the respective first derivative of each curve.

Mouse B Cells = settings: mean and std. dev. of at least 3 experiments, compared to wells with no added ODN, cited from earlier work
[2] = Apo B mRNA, Hep3B cells, 24 hours after transfection, read-out: IC50 (nM) (rounded up to single digit)
[3] = Complete IC50 data evaluated by SYBR green, Apo B mRNA, Hep3B cells, 24 hours, 3 biological replicates, read-out: IC50

| Substance | IC50 [1, 2] [nM] | IC50 [1, 3] [nM] | activity compared to Mipomersen (120) [1] | potency compared to the corresponding stereorandom oligonucleotide mixture (Oligonucleotide 118) [1] | Tm (° C.) ± 0.5 (complementary RNA) [°C] | Stimulation Index, 3H Uridine (Mouse B Cells; US 6,239,116 Table 1) | Stimulation Index, IgM Production (Mouse B Cells; US 6,239,116 Table 1) | Stimulation Index, 3H Uridine (Mouse B Cells) | IC50 (nM) (rounded up to single digit) ([1]; Apo B mRNA, Hep3B cells, 24 hours after transfection) |
| --- | --- | --- | --- | --- | --- | --- | --- | --- | --- |
| (Sp, Rp, Rp, Rp, Rp, Rp, Rp, Rp, Rp, Rp, Rp, Rp, Rp, Rp, Rp, Rp, Rp, Rp, Sp)-d[GsCsCsTsCsAsGsTsCsTsGsCsTsTsCsGsCsAsCsC] (DNA GCCTCAGTCTGCTTCGCACC; DNA, linkages [Sp]1 [Rp]17 [Sp]1 (s phosphorothioate, o phosphodiester), methylation of C not given here) [Oligonucleotide 105] | 3 | 2.88 | more active | more potent | 66.5 |  |  |  |  |
| (Rp, Rp, Rp, Rp, Rp, Sp, Sp, Sp, Sp, Sp, Sp, Sp, Sp, Sp, Rp, Rp, Rp, Rp, Rp)-d[GsCsCsTsCsAsGsTsCsTsGsCsTsTsCsGsCsAsCsC] (DNA GCCTCAGTCTGCTTCGCACC; DNA, linkages [Rp]5 [Sp]9 [Rp]5 (s phosphorothioate, o phosphodiester), methylation of C not given here) [Oligonucleotide 103] | 6 | 5.73 |  |  | 63.4 | 6.1 ± 1.4 | 19.2 ± 5.2 | 6.1 ± 1.4 |  |
| (Rp, Sp, Rp, Rp, Sp, Rp, Rp, Sp, Rp, Rp, Sp, Rp, Rp, Sp, Rp, Rp, Sp, Rp, Rp)d[GsCsCsTsCsAsGsTsCsTsGsCsTsTsCsGsCsAsCsC] (DNA dG[Rp]dC[Sp]dC[Rp]dT[Rp]dC[Sp]dA[Rp]dG[Rp]dT[Sp]dC[Rp]dT[Rp]dG[Sp]dC[Rp]dT[Rp]dT[Sp]dC[Rp]dG[Rp]dC[Sp]dA[Rp]dC[Rp]dC) [Oligonucleotide 116] | 2 | 1.92 | more active | more potent | 64.8 |  |  |  |  |
| (Sp, Sp, Sp, Sp, Sp, Rp, Rp, Rp, Rp, Rp, Rp, Rp, Rp, Rp, Sp, Sp, Sp, Sp, Sp)-d[GsCsCsTsCsAsGsTsCsTsGsCsTsTsCsGsCsAsCsC] (DNA GCCTCAGTCTGCTTCGCACC; DNA, linkages [Sp]5 [Rp]9 [Sp]5 (s phosphorothioate, o phosphodiester), methylation of C not given here) [Oligonucleotide 104] | 4 | 4.29 | more active |  | 63.5 |  |  |  |  |
| (Rp, Rp, Sp, Rp, Rp, Sp, Rp, Rp, Sp, Rp, Rp, Sp, Rp, Rp, Sp, Rp, Rp, Sp, Rp)-d[GsCsCsTsCsAsGsTsCsTsGsCsTsTsCsGsCsAsCsC] (DNA GCCTCAGTCTGCTTCGCACC; DNA, linkages [Rp][Rp][Sp][Rp][Rp][Sp][Rp][Rp][Sp][Rp][Rp][Sp][Rp][Rp][Sp][Rp][Rp][Sp][Rp] (s phosphorothioate, o phosphodiester), methylation of C not given here) [Oligonucleotide 114] | 5 | 5.23 |  |  | 65.2 |  |  |  |  |
| (Sp, Sp, Sp, Rp, Rp, Rp, Rp, Rp, Rp, Rp, Rp, Rp, Rp, Rp, Rp, Rp, Sp, S, Sp)d[GsCsCsTsCsAsGsTsCsTsGsCsTsTsCsGsCsAsCsC] (DNA GCCTCAGTCTGCTTCGCACC; DNA, linkages [Sp]3 [Rp]13 [Sp]3 (s phosphorothioate, o phosphodiester), methylation of C not given here) [Oligonucleotide 109] | 2 | 1.72 | more active | more potent | 65.8 |  |  |  |  |
| (Rp, Sp, Rp, Sp, Rp, Sp, Rp, Sp, Rp, Sp, Rp, Sp, Rp, Sp, Rp, Sp, Rp, Sp, Rp)-d[GsCsCsTsCsAsGsTsCsTsGsCsTsTsCsGsCsAsCsC] (DNA GCCTCAGTCTGCTTCGCACC; DNA, linkages [Rp][Sp][Rp][Sp][Rp][Sp][Rp][Sp][Rp][Sp][Rp][Sp][Rp][Sp][Rp][Sp][Rp][Sp][Rp] (s phosphorothioate, o phosphodiester), methylation of C not given here) [Oligonucleotide 107] | 4 | ~4.18 | more active |  | 64.5 |  |  |  |  |
| (Rp, Rp, Rp, Sp, Sp, Sp, Sp, Sp, Sp, Sp, Sp, Sp, Sp, Sp, Sp, Sp, Rp, Rp, Rp)-d[GsCsCsTsCsAsGsTsCsTsGsCsTsTsCsGsCsAsCsC] (DNA GCCTCAGTCTGCTTCGCACC; DNA, linkages [Rp]3 [Sp]13 [Rp]3 (s phosphorothioate, o phosphodiester), methylation of C not given here) [Oligonucleotide 110] | 7 | 7.44 |  |  | 62.9 |  |  |  |  |
| (Sp, Rp, Sp, Rp, Sp, Rp, Sp, Rp, Sp, Rp, Sp, Rp, Sp, Rp, Sp, Rp, Sp, Rp, Sp)-d[GsCsCsTsCsAsGsTsCsTsGsCsTsTsCsGsCsAsCsC] (DNA GCCTCAGTCTGCTTCGCACC; DNA, linkages [Sp][Rp][Sp][Rp][Sp][Rp][Sp][Rp][Sp][Rp][Sp][Rp][Sp][Rp][Sp][Rp][Sp][Rp][Sp] (s phosphorothioate, o phosphodiester), methylation of C not given here) [Oligonucleotide 108] | 3 | 3.19 |  |  | 64.8 |  |  |  |  |
| Mipomersen (DNA eG*e[5mC]*e[5mC]*eT*e[5mC]*dA*dG*dT*d[5mC]*dT*dG*d[5mC]*dT*dT*d[5mC]*eG*e[5mC]*eA*e[5mC]*e[5mC]) [Oligonucleotide 120, "Mipomersen, which is a stereorandom oligonucleotide mixture (Oligonucleotides 104, 105 ... compared to 120)", reference compound] | 4 | 4.39 |  |  | 65.3 |  |  |  |  |
| (Rp, Sp, Sp, Sp, Sp, Sp, Sp, Sp, Sp, Sp, Sp, Sp, Sp, Sp, Sp, Sp, Sp, Sp, Rp)-d[GsCsCsTsCsAsGsTsCsTsGsCsTsTsCsGsCsAsCsC] (DNA GCCTCAGTCTGCTTCGCACC; DNA, linkages [Rp]1 [Sp]17 [Rp]1 (s phosphorothioate, o phosphodiester), methylation of C not given here) [Oligonucleotide 106] | 4 | ~3.85 | more active |  | 61.8 |  |  |  |  |
| 119 (DNA GCCTCAGTCTGCTTCGCACC; unmodified DNA) [Oligonucleotide 119] |  |  |  |  | 73.4 |  |  |  | Not detected |
| (Sp, Rp, Rp, Sp, Rp, Rp, Sp, Rp, Rp, Sp, Rp, Rp, Sp, Rp, Rp, Sp, Rp, Rp, Sp)-d[GsCsCsTsCsAsGsTsCsTsGsCsTsTsCsGsCsAsCsC] (DNA GCCTCAGTCTGCTTCGCACC; DNA, linkages [Sp][Rp][Rp][Sp][Rp][Rp][Sp][Rp][Rp][Sp][Rp][Rp][Sp][Rp][Rp][Sp][Rp][Rp][Sp] (s phosphorothioate, o phosphodiester), methylation of C not given here) [Oligonucleotide 115] | 3 | 2.69 | more active | more potent | 65.2 |  |  |  |  |
